Assay results: the NIST ThermoML archive (doi:10.1016/j.jct.2011.10.001)

Experiment: molar heat capacity at constant pressure
Conditions: 101.33 kPa, Vacuum adiabatic calorimetry

CCCC(=O)OC [methyl butanoate]
molar heat capacity at constant pressure [J/K/mol]
Conditions	Crystal	Liquid
130 K	99.17	–
131.79 K	100.55	–
133.79 K	101.43	–
135.8 K	102.27	–
137.8 K	103.03	–
139.79 K	103.9	–
140 K	103.65	–
141.79 K	104.89	–
143.79 K	105.51	–
145.78 K	106.36	–
147.78 K	107.25	–
149.77 K	107.92	–
150 K	108.14	–
151.89 K	109.06	–
153.86 K	109.91	–
155.85 K	110.69	–
157.83 K	111.73	–
159.81 K	112.47	–
160 K	112.62	–
161.79 K	113.29	–
163.77 K	114.29	–
165.74 K	115.26	–
167.72 K	116.18	–
169.56 K	116.65	–
170 K	117.11	–
171.52 K	117.81	–
173.49 K	119.09	–
175.45 K	120.75	–
177.41 K	122.58	–
179.36 K	125.17	–
180 K	121.59	–
181.29 K	129.69	–
183.2 K	139.88	–
185.04 K	158.37	–
186.78 K	216.75	–
188.21 K	448.34	–
189.16 K	1561.8	–
189.7 K	8659.7	–
190 K	126.08	–
190.09 K	126.12	184.56
191.08 K	185.22	–
192.79 K	–	184.74
194.49 K	–	184.98
196.18 K	–	185.21
197.88 K	–	185.04
199.57 K	–	185.15
200 K	–	185.19
201.25 K	–	185.01
202.85 K	–	185.47
202.93 K	–	185.15
204.61 K	–	185.47
204.73 K	–	185.64
206.27 K	–	185.39
206.69 K	–	185.68
207.94 K	–	185.44
208.64 K	–	186
210 K	–	185.83
210.58 K	–	186.03
212.53 K	–	186
214.48 K	–	186.17
216.42 K	–	186.44
218.37 K	–	186.11
220 K	–	186.51
220.31 K	–	186.33
222.24 K	–	186.86
224.17 K	–	186.8
226.1 K	–	186.88
228.02 K	–	187.23
229.93 K	–	187.61
230 K	–	187.52
231.85 K	–	187.86
233.68 K	–	187.83
235.58 K	–	188.04
237.48 K	–	188.4
239.37 K	–	188.78
240 K	–	188.78
241.26 K	–	188.74
243.14 K	–	189.23
245.01 K	–	189.8
246.89 K	–	190.04
248.76 K	–	190.11
250 K	–	190.21
250.62 K	–	190.43
252.49 K	–	190.56
254.35 K	–	190.93
256.2 K	–	190.97
258.06 K	–	191.41
259.91 K	–	191.46
260 K	–	191.68
261.76 K	–	191.67
263.49 K	–	192.11
265.34 K	–	192.17
267.17 K	–	192.77
269.01 K	–	193.06
270 K	–	193.16
270.85 K	–	193.64
272.68 K	–	194.01
274.5 K	–	193.7
276.33 K	–	194.03
278.16 K	–	194.27
279.98 K	–	194.58
280 K	–	194.68
281.79 K	–	195.04
283.59 K	–	195.25
285.4 K	–	195.54
287.19 K	–	195.76
288.98 K	–	196.51
290 K	–	196.51
290.74 K	–	196.84
292.33 K	–	196.73
294.09 K	–	197.27
295.83 K	–	197.8
297.59 K	–	198
298.15 K	–	198.08
299.34 K	–	198.43
300 K	–	198.44
301.06 K	–	198.72
302.76 K	–	198.98
304.45 K	–	199.24
306.14 K	–	199.38
307.81 K	–	199.85
309.48 K	–	200.31
310 K	–	200.39
311.13 K	–	200.58
312.78 K	–	200.66
314.42 K	–	201.21
316.05 K	–	201.68
317.67 K	–	201.91
318.97 K	–	202.28
320 K	–	202.43
320.57 K	–	202.72
322.17 K	–	203.14
323.75 K	–	203.27
325.32 K	–	203.68
326.89 K	–	204.18
328.44 K	–	204.41
329.98 K	–	204.65
330 K	–	204.68
331.51 K	–	204.84
333.03 K	–	205.34
334.54 K	–	205.78
336.04 K	–	206.3
337.49 K	–	206.62
338.96 K	–	206.61
340 K	–	207.21
340.42 K	–	207.11
341.87 K	–	207.49
342.87 K	–	207.85
344.3 K	–	208.38
345.71 K	–	208.82
347.12 K	–	209.31
348.51 K	–	209.73
349.89 K	–	209.95
350 K	–	210.03
351.26 K	–	210.42
352.61 K	–	210.86
353.95 K	–	211.39
355.28 K	–	211.75
356.6 K	–	211.91
357.9 K	–	212.69
359.2 K	–	212.83
360 K	–	213
360.47 K	–	213.07
361.74 K	–	213.3
362.99 K	–	214.05
363.57 K	–	213.92
364.8 K	–	214.49
366.02 K	–	214.53
367.22 K	–	214.65
368.41 K	–	215.35
369.58 K	–	215.99
370 K	–	215.8
370.75 K	–	216.01
371.9 K	–	216.31
